Source: patent US5482967A, “Condensed heterocyclic compounds, their production and use” (Takeda Chemical Industries, Ltd., priority 1992, dated 1996)

Target: substance P receptor (Homo sapiens, UniProt P25103)
Assay: Radioligand receptor binding inhibitory assay using receptor from human lymphoblast cells (IM-9), 125I-BHSP
Conditions: IM-9 receptor, 25° C., 30 minutes
Description: The method of A. Margaret et al. [Molecular Pharmacology 42, 458 (1992)] was modified and used. The receptor was prepared from human lymphoblast cells (IM-9). IM-9 cells were grown in 175 cm^2 tissue culture flasks (100 ml×10) at a density approximately 2×10^5 /ml of RPMI 1640 with L-glutamine, 10% (V/V) heat inactivated fetal calf serum, penicillin (100 u/ml), and streptomycin (100 μg/ml) at 37° C. in 5% CO2 /95% air for 3 days. IM-9 cells were obtained by centrifugation at 500×g for 5 minutes at 5° C. The pellet obtained was washed once with phosphate buffer (Flow Laboratories, CAT No. 28-103-05), homogenized using Polytron homogenizer (Kinematika, Germany) in 30 ml of 50 mM Tris-HCl buffer containing 120 mM NaCl, 5 mM KCl, 2 μg/ml phenylmethyl sulfonyl fluoride, and 1 mM ethylenediamine tetra-acetic acid and then centrifuged at 40,000×g for 20 minutes. The residue was washed twice with 30 ml of buffer described above, and preserved frozen (-80° C.).
The above specimen was suspended in a reaction buffer (50 mM Tris-HCl buffer (pH 7.4), 0.02% bovine serum albumin, 1 mM phenylmethylsulfonyl fluoride, 2 μg/ml chymostatin, 40 μg/ml bacitracin, 3 mM manganese chloride) at a protein concentration of 1.5 mg/ml and a 100 μl portion of the suspension was used in the reaction. After addition of the sample and 125I-BHSP (0.46 KBq), the reaction was conducted in 0.2 ml of reaction buffer at 25° C. for 30 minutes. The amount of nonspecific binding was determined by adding substance P at a final concentration of 2×10^-6 M. After the reaction, using a cell harvester (290PHD, Cambridge Technology, Inc., England), rapid filtration was carried out through a glass filter (GF/B, Whatman, U.S.A.) to stop the reaction. After washing three times with 250 μl of 50 mM Tris-HCl buffer (pH 7.4) containing 0.02% bovine serum albumin, the radioactivity remaining on the filter was measured with a gamma counter. Before use, the filter was immersed in 0.1% polyethyleneimine for 24 hours and air-dried.

Sequence of substance P receptor (P25103 whole entry): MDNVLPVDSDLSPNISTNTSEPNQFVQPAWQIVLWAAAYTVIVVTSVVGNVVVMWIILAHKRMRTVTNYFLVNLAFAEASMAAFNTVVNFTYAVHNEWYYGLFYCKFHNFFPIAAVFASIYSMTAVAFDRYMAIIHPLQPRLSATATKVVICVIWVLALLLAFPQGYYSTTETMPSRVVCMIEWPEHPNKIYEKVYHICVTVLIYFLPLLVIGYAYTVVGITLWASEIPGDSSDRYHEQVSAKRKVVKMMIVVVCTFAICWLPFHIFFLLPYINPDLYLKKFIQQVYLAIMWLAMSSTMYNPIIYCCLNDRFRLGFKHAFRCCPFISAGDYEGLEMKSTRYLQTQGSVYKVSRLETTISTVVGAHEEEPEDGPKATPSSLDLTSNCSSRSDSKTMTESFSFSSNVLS

Compound	IC50
Cc1cccc(C)c1-c1c(C(=O)NCc2cc(C(F)(F)F)cc(C(F)(F)F)c2)n(C)c(=O)c2ccccc12 [Example 122, N-[3,5-Bis(trifluoromethyl)benzyl]-1,2-dihydro-2-methyl-4-(2,6-dimethylphenyl)-1-oxo-3-isoquinolinecarboxamide]	82 nM
COc1ccccc1CN(C)C(=O)c1c(-c2ccccc2)c2ccccc2c(=O)n1C [Example 108, 1,2-Dihydro-N-(2-methoxybenzyl)-N,2-dimethyl-1-oxo-4-phenyl-3-isoquinolinecarboxamide]	30 nM
CN(Cc1cc(C(F)(F)F)cc(C(F)(F)F)c1)C(=O)c1c(-c2ccc(F)cc2)c2ccccc2c(=O)n1C [Example 166, N-[3,5-Bis(trifluoromethyl)benzyl]-4-(4-fluorophenyl)-1,2-dihydro-N,2-dimethyl-1-oxo-3-isoquinolinecarboxamide]	0.35 nM
CCn1c(C(=O)N(C)Cc2cc(C(F)(F)F)cc(C(F)(F)F)c2)c(-c2ccccc2)c2ccccc2c1=O [Example 189, N-[3,5-Bis(trifluoromethyl)benzyl]-1,2-dihydro-2-ethyl-N-methyl-1-oxo-4-phenyl-3-isoquinolinecarboxamide]	1.7 nM
Cc1cc2c(-c3ccccc3)c(C(=O)N(C)Cc3cc(C(F)(F)F)cc(C(F)(F)F)c3)n(C)c(=O)c2cc1C [Example 112, N-[3,5-Bis(trifluoromethyl)benzyl]-1,2-dihydro-N,2,6,7-tetramethyl-1-oxo-4-phenyl-3-isoquinolinecarboxamide]	8.4 nM
CN(Cc1cc(C(F)(F)F)cc(C(F)(F)F)c1)C(=O)c1[nH]c(=O)c2ccc(Cl)cc2c1-c1ccccc1 [Example 177, N-[3,5-Bis(trifluoromethyl)benzyl]-6-chloro-1,2-dihydro-N-methyl-1-oxo-4-phenyl-3-isoquinolinecarboxamide]	13 nM
CN(Cc1cc(C(F)(F)F)cc(C(F)(F)F)c1)C(=O)c1cnc2ccccc2c1-c1ccccc1 [Example 265, N-[3,5-Bis(trifluoromethyl)benzyl]-N-methyl-4-phenyl-3-quinolinecarboxamide]	0.52 nM
Cn1c(C(=O)NCc2cc(C(F)(F)F)cc(C(F)(F)F)c2)c(-c2ccccc2)c2ccccc2c1=O [Example 156, N-[3,5-Bis(trifluoromethyl)benzyl]-1,2-dihydro-2-methyl-1-oxo-4-phenyl-3-isoquinolinecarboxamide]	6.1 nM
Cc1ccc(CNC(=O)c2c(-c3ccccc3)c3ccccc3c(=O)n2C)cc1 [Example 170, 1,2-Dihydro-2-methyl-N-(4-methylbenzyl)-1-oxo-4-phenyl-3isoquinolinecarboxamide]	19 nM
CN(Cc1cc(C(F)(F)F)cc(C(F)(F)F)c1)C(=O)c1c(-c2ccccc2)c2ccccc2[nH]c1=O [Example 258, N-[3,5-Bis(trifluoromethyl)benzyl]-1,2-dihydro-N-methyl-2-oxo-4-phenyl-3-quinolinecarboxamide]	3.1 nM
Cn1c(C(=O)NCc2cc(C(F)(F)F)cc(C(F)(F)F)c2)c(-c2ccccc2C(F)(F)F)c2ccccc2c1=O [Example 181, N-[3,5-Bis(trifluoromethyl)benzyl]-1,2-dihydro-2-methyl-1-oxo-4-(2-trifluoromethylphenyl)-3-isoquinolinecarboxamide]	31 nM
CN(Cc1cc(C(F)(F)F)cc(C(F)(F)F)c1)C(=O)c1oc(=O)c2ccccc2c1-c1ccccc1 [Example 243, N-[3,5-Bis(trifluoromethyl)benzyl]-N-methyl-1-oxo-4-phenyl-1H-2-benzopyran-3-carboxamide]	0.9 nM
COc1ccccc1-c1c(C(=O)N(C)Cc2cc(C(F)(F)F)cc(C(F)(F)F)c2)c(=O)oc2ccc(Cl)cc12 [Example 251, N-[3,5-Bis(trifluoromethyl)benzyl]-6-chloro-4-(2-methoxyphenyl)-N-methyl-2-oxo-2H-1-benzopyran-3-carboxamide]	60 nM
CN(Cc1cc(C(F)(F)F)cc(C(F)(F)F)c1)C(=O)c1[nH]c(=O)c2ccccc2c1-c1ccc(F)cc1 [Example 178, N-[3,5-Bis(trifluoromethyl)benzyl]-4-(4-fluorophenyl)-1,2-dihydro-N-methyl-1-oxo-3-isoquinolinecarboxamide]	0.14 nM
Cn1c(C(=O)NCc2ccc(C(F)(F)F)cc2)c(-c2ccccc2)c2ccccc2c1=O [Example 171, 1,2-Dihydro-2-methyl-1-oxo-4-phenyl-N-[4-(trifluoromethyl)benzyl]-3-isoquinolinecarboxamide]	20 nM
CN(Cc1cc(C(F)(F)F)cc(C(F)(F)F)c1)C(=O)c1c(-c2ccccc2)c2ccccc2c(=S)n1C [Example 285, N-[3,5-Bis(trifluoromethyl)benzyl]-1,2-dihydro-N,2-dimethyl-4-phenyl-1-thioxo-3-isoquinolinecarboxamide]	9.4 nM
Cc1cc(C)cc(CN(C)C(=O)c2c(-c3ccccc3C)c3ccccc3c(=O)n2C)c1 [Example 106, 1,2-Dihydro-N-(3,5-dimethylbenzyl)-N,2-dimethyl-4-(2-methylphenyl)-1-oxo-3-isoquinolinecarboxamide]	30 nM
Cc1cc2c(-c3ccccc3)c(C(=O)NCc3ccccc3Cl)n(C)c(=O)c2cc1C [Example 131, N-(2-Chlorobenzyl)-1,2-dihydro-2,6,7-trimethyl-1-oxo-4-phenyl-3-isoquinolinecarboxamide]	86 nM
CCN(Cc1cc(C(F)(F)F)cc(C(F)(F)F)c1)C(=O)c1c(-c2ccccc2)c2ccccc2c(=O)n1C [Example 187, N-[3,5-Bis(trifluoromethyl)benzyl]-1,2-dihydro-N-ethyl-2-methyl-1-oxo-4-phenyl-3-isoquinolinecarboxamide]	1.4 nM
COc1ccccc1CNCc1c(-c2ccccc2)c2cc(C)c(C)cc2c(=O)n1C [Example 190, 1,2-Dihydro-N-(2-methoxybenzyl)-2,6,7-trimethyl-1-oxo-4-phenyl-3-isoquinolinemethylamine]	13 nM
CN(Cc1cc(C(F)(F)F)cc(C(F)(F)F)c1)C(=O)c1c(-c2ccccc2)c2ccccc2c(=O)n1CC[N+](C)(C)C [Example 282, N-[3,5-Bis(trifluoromethyl)benzyl]-1,2-dihydro-N-methyl-1-oxo-4-phenyl-2-[2-(N,N,N-trimethylammonium)ethyl]-3-isoquinolinecarboxamide]	22 nM
CN(Cc1cc(C(F)(F)F)cc(C(F)(F)F)c1)C(=O)c1[nH]c(=O)c2ccccc2c1-c1ccccc1 [Example 172, N-[3,5-Bis(trifluoromethyl)benzyl]-1,2-dihydro-N-methyl-1-oxo-4-phenyl-3-isoquinolinecarboxamide]	0.5 nM
CN(Cc1cc(C(F)(F)F)cc(C(F)(F)F)c1)C(=O)c1c(Cl)nc2ccccc2c1-c1ccccc1 [Example 269, N-[3,5-Bis(trifluoromethyl)benzyl]-2-chloro-N-methyl-4-phenyl-3-quinolinecarboxamide]	1.4 nM
COc1ccccc1CN(C)C(=O)c1c(-c2ccccc2C)c2ccccc2c(=O)n1C [Example 104, 1,2-Dihydro-N-(2-methoxybenzyl)-N,2-dimethyl-4-(2-methylphenyl)-1-oxo-3-isoquinolinecarboxamide]	16 nM
Cn1c(COCc2cc(C(F)(F)F)cc(C(F)(F)F)c2)c(-c2ccccc2)c2ccccc2c1=O [Example 211, 3,5-Bis(trifluoromethyl)benzyl 1,2-dihydro-2-methyl-1-oxo-4-phenyl-3-isoquinolinemethyl ether]	23 nM
